Data taken from US5334583A (priority 1982, dated 1994).

Assays:
Type in all cases: in vivo
[1] = tested on: Herpesvirus hominis 2/Angelotti; test: Topical chemotherapy of Herpes genitalis in guinea pigs, local symptoms; conditions: for Animals [%] with regression of symptoms of ≥ 66% on day 7 / Animals [%] with regression of symptoms of ≥ 66% on day 10 / Animals [%] with regression of symptoms of ≥ 66% on day 12 / Animals [%] with regression of symptoms of ≥ 66% on day 14 / Symptom-free animals [%] on day 10 / Symptom-free animals [%] on day 12 / Symptom-free animals [%] on day 14 / Symptom-free animals [%] on day 21: placebo 0, untreated 0; for Symptom-free animals [%] on day 34: placebo 0, untreated 20
From the text: The number indicated in the following Table of female albino guinea pigs of the Pirbright strain (150-180 g body weight) are infected intravaginally with ~10^4 PFU (plaque-forming units) of Herpesvirus hominis 2/Angelotti, cultivated in HEL (human embryonal lungs) cells, as described in B. Lukas et. al., Arch. ges. Virusforsch. 44, 153-155 (1974) .
At the time indicated in the following Table (the time difference in days in relation to the day of infection, - [minus] indicating a time before infection) the number N of guinea pigs indicated in Table 2 are treated intravaginally with a single dose of in each case 0.1 ml of a gel containing the concentration of compound I indicated in Table 2.
The gel without active ingredient has the following composition:
2.25 % sodium carboxymethylcellulose (Hercules, USA)
made up to 100 % with bi-distilled water.
The effect of the treatment can be seen in Table 2.
The symptoms occurring in untreated animals are described in B. Lukas et al., Arch. Virol. 49, 1-11 (1975) .

Encephalomyocarditis = test: Survival of mice infected intranasally with lethal dose of Encephalomyocarditis virus; conditions: oral, control 30
Herpes Simplex 1/Virtue = test: Survival of mice infected intranasally with lethal dose of Herpes Simplex 1/Virtue; conditions: intranasal, day -7, 0.1 mg/kg single dose; control 40
[2] = tested on: Influenza B/Hong Kong/5/72; test: Survival of mice infected intranasally with lethal dose of Influenza B/Hong Kong/5/72; conditions: intranasal, day -7, 0.1 mg/kg single dose; control 30
vaccinal virus IHD = test: Tail lesions in mice infected intravenously with vaccinal virus IHD; conditions: 1 mg/kg oral; for Number of tail lesions (mean ± standard deviation) on day +7 / Number of tail lesions (mean ± standard deviation) on day +9: control 4.3 ± 1.9; for Number of tail lesions (mean ± standard deviation) on day +12: control 4.6 ± 1.8; for Number of tail lesions (mean ± standard deviation) on day +10: control 5.9 ± 1.9
Method: Groups of 20 female Tif:MF-2f (SPF) mice each having a body weight of 14-16 g are infected intravenously, under light anaesthesia using a mixture of equal parts of diethyl ether, ethanol and chloroform, with 2×10^3 PFU vaccinal virus IHD in the form of in each case 0.1 ml of a suspension of the virus in beef heart infusion broth.
10 of these mice from each of the above-mentioned groups are treated on the fourth or sixth day after infection, that is to say on day +4 or +6 (administration day), with a single oral administration of 1 mg/kg of compound I in 0.2 ml of a 0.05 % by weight aqueous solution of sodium carboxymethylcellulose.
The remaining 10 mice from each of the above-mentioned groups serve as the controls and receive a placebo.
On the seventh, ninth, tenth and twelfth day after infection the number of tail lesions in the mice is determined, this being carried out substantially as described by J. J. Boyle, R. F. Haff and R. C. Stewart in Antimicrobial Agents and Chemotherapy, 536-539 (1967), and it should be noted that the first tail lesions can be identified only on the sixth or seventh day.

Herpes Simplex 1/TUP = test: Survival of mice infected intranasally with lethal dose of Herpes Simplex 1/TUP; conditions: intranasal, day -7, 0.1 mg/kg single dose; control 20
Method: Groups of 30, 40 or 50 female MF-2f SPF mice each having a body weight of 14-16 g, or of 12-14 g in the case of tests with herpes simplex 1 viruses, are infected intranasally, under light anaesthesia using a mixture of equal parts of ether, ethanol and chloroform, with lethal doses (approximately LD80-90; number of plaque-forming units [PFU] see Table 1 ) of the undermentioned virus strains in the form of 0.05 ml in each case of a suspension of the viruses.
At the time indicated below (days) in relation to the day of infection, 10 or 20 of these mice are administered once (single dose) the quantities indicated in Table 1 of the active ingredient, the sodium salt of N-acetylmuramyl-L-alanyl-D-isoglutaminyl-L-alanine-2-(1,2-dipalmitoyl-sn-glycero-3-hydroxyphosphoryloxy)-ethylamide (compound I), in 0.05 ml or 0.1 ml of phosphate-buffered salt solution (PBS) or in 0.2 ml of a 0.05 % by weight solution of sodium carboxymethylcellulose in double-distilled water, by means of intranasal, intravenous or oral administration respectively, in the manner indicated in Table 1 .
The remainder of the above-mentioned mice, that is 20 or 30, serve as the control, that is to say they either receive no treatment or are given a placebo.
The intranasal administration of compound I is effected under light anaesthesia using a mixture of equal parts of diethyl ether, ethanol and chloroform.

[3] = 0.1 ml gel 0.1 % intravaginal, single dose day +4, N 13
[4] = 0.1 ml gel 0.1 % intravaginal, single dose day -7, N 14
[5] = 0.1 ml gel 1.0 % intravaginal, single dose day +4, N 14
[6] = 0.1 ml gel 1.0 % intravaginal, single dose day -7, N 14
[7] = single administration on day +4
[8] = single administration on day +6

CCCCCCCCCCCCCCCC(=O)OC[C@H](COP(=O)(O)OCCNC(=O)[C@H](C)NC(=O)CC[C@@H](NC(=O)[C@H](C)NC(=O)[C@@H](C)O[C@H]1[C@H](O)[C@@H](CO)OC(O)[C@@H]1NC(C)=O)C(N)=O)OC(=O)CCCCCCCCCCCCCCC (stereo partly drawn) [compound I, N-acetylmuramyl-L-alanyl-D-isoglutaminyl-L-alanine-2-(1,2-dipalmitoyl-sn-glycero-3-hydroxyphosphoryloxy)-ethylamide]
Animals [%] with regression of symptoms of ≥ 66% on day 7 [1, 3]: 62% | Animals [%] with regression of symptoms of ≥ 66% on day 10 [1, 3]: 85% | Animals [%] with regression of symptoms of ≥ 66% on day 12 [1, 3]: 100% | Animals [%] with regression of symptoms of ≥ 66% on day 14 [1, 3]: 93% | Symptom-free animals [%] on day 10 [1, 3]: 70% | Symptom-free animals [%] on day 12 [1, 3]: 77% | Symptom-free animals [%] on day 14 [1, 3]: 85% | Symptom-free animals [%] on day 21 [1, 3]: 100% | Symptom-free animals [%] on day 34 [1, 3]: 100% | Animals [%] with regression of symptoms of ≥ 66% on day 7 [1, 4]: 21% | Animals [%] with regression of symptoms of ≥ 66% on day 10 [1, 4]: 57% | Animals [%] with regression of symptoms of ≥ 66% on day 12 [1, 4]: 86% | Animals [%] with regression of symptoms of ≥ 66% on day 14 [1, 4]: 100% | Symptom-free animals [%] on day 10 [1, 4]: 43% | Symptom-free animals [%] on day 12 [1, 4]: 64% | Symptom-free animals [%] on day 14 [1, 4]: 86% | Symptom-free animals [%] on day 21 [1, 4]: 86% | Symptom-free animals [%] on day 34 [1, 4]: 100% | Animals [%] with regression of symptoms of ≥ 66% on day 7 [1, 5]: 79% | Animals [%] with regression of symptoms of ≥ 66% on day 10 [1, 5]: 79% | Animals [%] with regression of symptoms of ≥ 66% on day 12 [1, 5]: 86% | Animals [%] with regression of symptoms of ≥ 66% on day 14 [1, 5]: 93% | Symptom-free animals [%] on day 10 [1, 5]: 36% | Symptom-free animals [%] on day 12 [1, 5]: 64% | Symptom-free animals [%] on day 14 [1, 5]: 79% | Symptom-free animals [%] on day 21 [1, 5]: 86% | Symptom-free animals [%] on day 34 [1, 5]: 100% | Animals [%] with regression of symptoms of ≥ 66% on day 7 [1, 6]: 29% | Animals [%] with regression of symptoms of ≥ 66% on day 10 [1, 6]: 79% | Animals [%] with regression of symptoms of ≥ 66% on day 12 [1, 6]: 71% | Animals [%] with regression of symptoms of ≥ 66% on day 14 [1, 6]: 93% | Symptom-free animals [%] on day 10 [1, 6]: 21% | Symptom-free animals [%] on day 12 [1, 6]: 57% | Symptom-free animals [%] on day 14 [1, 6]: 86% | Symptom-free animals [%] on day 21 [1, 6]: 86% | Symptom-free animals [%] on day 34 [1, 6]: 100% | Percentage survivors (Encephalomyocarditis; day +4, 1 mg/kg single dose): 90% | Percentage survivors (Encephalomyocarditis; day +4, 10 mg/kg single dose): 70% | Percentage survivors (Encephalomyocarditis; day +4, 100 mg/kg single dose): 100% | Percentage survivors (Herpes Simplex 1/Virtue): 70% | Percentage survivors [2]: 80% | Number of tail lesions (mean ± standard deviation) on day +7 (vaccinal virus IHD; [7]): 0.9 ± 0.7 | Number of tail lesions (mean ± standard deviation) on day +9 (vaccinal virus IHD; [7]): 0.9 ± 0.9 | Number of tail lesions (mean ± standard deviation) on day +12 (vaccinal virus IHD; [7]): 0.2 ± 0.4 | Number of tail lesions (mean ± standard deviation) on day +10 (vaccinal virus IHD; [7]): 0.9 ± 1.4 | Number of tail lesions (mean ± standard deviation) on day +7 (vaccinal virus IHD; [8]): 1.1 ± 1.4 | Number of tail lesions (mean ± standard deviation) on day +9 (vaccinal virus IHD; [8]): 0.9 ± 1.6 | Number of tail lesions (mean ± standard deviation) on day +12 (vaccinal virus IHD; [8]): 0.5 ± 1.0 | Number of tail lesions (mean ± standard deviation) on day +10 (vaccinal virus IHD; [8]): 0.3 ± 0.7 | Percentage survivors (Herpes Simplex 1/TUP): 60%
